Assay results published in patent US20250320213A1, “Nitrogen-Containing Heterocyclic Compounds” (Pfizer Inc., priority 2024, published 2025).

The compounds below were run against T1, STAT6 (Homo sapiens, UniProt P42226) (assay: STAT6 Reporter Luciferase Assay (IL-13 stimulated HaCaT keratinocyte NanoLuc reporter cells)). Conditions: IL-13 stimulated HaCaT STAT6 NanoLuc reporter cells; read-out: Reporter EC50.
T1 construct: stably transfected HaCaT keratinocyte cell line, which expresses NanoLuc luciferase reporter gene under the transcriptional control of the STAT6 responsive promoter; endogenous in cells; host or cells: HaCaT keratinocyte reporter cell line (stably transfected with a NanoLuc reporter)
T1 sequence (P42226 1-847): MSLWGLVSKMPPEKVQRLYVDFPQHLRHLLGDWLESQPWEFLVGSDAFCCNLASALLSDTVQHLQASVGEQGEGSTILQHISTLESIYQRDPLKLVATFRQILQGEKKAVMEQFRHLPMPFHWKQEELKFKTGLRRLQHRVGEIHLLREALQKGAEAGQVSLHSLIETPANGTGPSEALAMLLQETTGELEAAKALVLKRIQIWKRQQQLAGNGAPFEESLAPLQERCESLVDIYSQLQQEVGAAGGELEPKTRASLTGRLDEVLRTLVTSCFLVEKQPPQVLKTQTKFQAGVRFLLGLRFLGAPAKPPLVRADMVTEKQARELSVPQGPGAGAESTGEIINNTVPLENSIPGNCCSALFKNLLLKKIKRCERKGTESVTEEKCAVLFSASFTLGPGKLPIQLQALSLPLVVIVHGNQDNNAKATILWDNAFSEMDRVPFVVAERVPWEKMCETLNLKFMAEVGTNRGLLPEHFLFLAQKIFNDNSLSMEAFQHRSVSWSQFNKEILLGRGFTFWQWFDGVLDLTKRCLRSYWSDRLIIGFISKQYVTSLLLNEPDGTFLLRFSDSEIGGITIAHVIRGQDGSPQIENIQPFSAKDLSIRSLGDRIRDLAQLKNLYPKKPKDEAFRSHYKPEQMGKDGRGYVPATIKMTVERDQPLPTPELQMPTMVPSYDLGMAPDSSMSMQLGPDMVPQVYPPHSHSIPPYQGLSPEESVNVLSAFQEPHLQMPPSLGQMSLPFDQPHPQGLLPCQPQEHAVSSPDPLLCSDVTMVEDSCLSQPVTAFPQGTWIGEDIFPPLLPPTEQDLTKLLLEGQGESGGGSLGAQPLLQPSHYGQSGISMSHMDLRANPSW
Format: cell-based
Procedure: Pharmacological measurements of STAT6 transcriptional activity through the IL-13-IL-13 receptor/IL-4 receptor pathway were made with a stably transfected HaCaT keratinocyte cell line, which expresses NanoLuc luciferase reporter gene under the transcriptional control of the STAT6 responsive promoter for IL-13Ra2. The readout of the STAT6 activity utilized Promega Nano-Glo Luciferase assay kit.
The reporter cells were cultured in a growth media comprised of DMEM High Glucose, no calcium and no glutamine, 10% heat inactivated fetal bovine serum (HI FBS), 1% 100× Glutamax, and 100 U/mL Penicillin-Streptomycin (units of penicillin in 1 mL of streptomycin). Seven thousand cells were plated in 25 microliter (μL) per well in a 384-well, white bottom, tissue culture plate. Cells were cultured overnight at 37° C. The next day, test compounds (solubilized and serially diluted in DMSO, in an 11 point, 4-fold dilution series in duplicate) were spotted, 60 nanoliters (nL) per well, into a 384 well v-bottom polypropylene plate. Thirty μL per well of 37° C. dosing media (Dulbecco's modified eagle medium (DMEM) High Glucose, no calcium and no glutamine with 2% HI FBS) was added to the compound plate. Growth media was removed from the cell plate, and the cells were washed with DPBS. Twenty μL per well of compounds diluted in dosing media were transferred from the compound plate to the cell plate and the compounds were further diluted with an additional 15 μL of dosing media in the cell plate: the cell plate was incubated for two hours at 37° C. After two hours, STAT6 activity was stimulated with the addition of 5 μL per well of IL-13 (R&D Systems) in dosing media with a final concentration of 0.12 nM IL13. Cells were incubated at 37° C. for 4 hours to allow for reporter gene expression, then all media was removed from the plate. The cell plates were treated with assay buffer and Luciferase substrate from Nano-Glo Luciferase Assay Kit for 15 min and then measured for luminescence on an EnVision 2105 multilabel reader (PerkinElmer).

EC50	Structure (SMILES)
16 nM	CC(C)n1nc(C(=O)NCc2ccc(NC(=O)N3CCN(C)CC3)cc2)c2c1C(C(F)(F)F)CN(c1ccc(C(=O)N(C)C)cn1)C2 (single isomer, unassigned) [Example 693, rel-(R or S)-5-(5-(dimethylcarbamoyl)pyridin-2-yl)-1-isopropyl-N-(4-(4-methylpiperazine-1-carboxamido)benzyl)-7-(trifluoromethyl)-4,5,6,7-tetrahydro-1H-pyrazolo[4,3-c]pyridine-3-carboxamide]
32 nM	CCn1nc(C(=O)NCc2ccc(NC(=O)N3CCN(C)CC3)cc2)c2c1C(C(F)(F)F)CN(c1ccc(C(=O)N(C)C)cn1)C2 (single isomer, unassigned) [Example 695, rel-(R or S)-5-(5-(dimethylcarbamoyl)pyridin-2-yl)-1-ethyl-N-(4-(4-methylpiperazine-1-carboxamido)benzyl)-7-(trifluoromethyl)-4,5,6,7-tetrahydro-1H-pyrazolo[4,3-c]pyridine-3-carboxamide]
10 nM	CC(C)n1nc(C(=O)NCc2ccc(NC(=O)N3CCN(C)CC3)cc2)c2c1C(C(F)(F)F)CN(c1ccc(C(=O)N(C)C)cc1)C2 (single isomer, unassigned) [Example 702, rel-(R or S)-5-(4-(dimethylcarbamoyl)phenyl)-1-isopropyl-N-(4-(4-methylpiperazine-1-carboxamido)benzyl)-7-(trifluoromethyl)-4,5,6,7-tetrahydro-1H-pyrazolo[4,3-c]pyridine-3-carboxamide]
3770 nM	CCn1nc2c(c1C(=O)NCc1ccc(NC(=O)N(C)C)cc1)CN(c1ccc(C(=O)N(C)C)cn1)[C@@H](C)[C@@H]2C (stereo in doubt) [Example 316, rel-(6S,7S)-5-(5-(dimethylcarbamoyl)pyridin-2-yl)-N-(4-(3,3-dimethylureido)benzyl)-2-ethyl-6,7-dimethyl-4,5,6,7-tetrahydro-2H-pyrazolo[4,3-c]pyridine-3-carboxamide]
355 nM	CCn1nc2c(c1C(=O)NCc1ccc(NC(=O)N(C)C)cc1)CN(c1ccc(C(=O)N(C)C)cn1)[C@H](C)[C@H]2C (stereo in doubt) [Example 317, rel-(6R,7R)-5-(5-(dimethylcarbamoyl)pyridin-2-yl)-N-(4-(3,3-dimethylureido)benzyl)-2-ethyl-6,7-dimethyl-4,5,6,7-tetrahydro-2H-pyrazolo[4,3-c]pyridine-3-carboxamide]
10 nM	CC(C)n1nc(C(=O)NCc2ccc(NC(=O)N3CC4CC4C3)cc2)c2c1CCN(c1ccc(C(=O)N(C)C)cn1)C2 (stereo not shown) [Example 186, N-(4-(3-azabicyclo[3.1.0]hexane-3-carboxamido)benzyl)-5-(5-(dimethylcarbamoyl)pyridin-2-yl)-1-isopropyl-4,5,6,7-tetrahydro-1H-pyrazolo[4,3-c]pyridine-3-carboxamide]
164 nM	CC(C)n1nc(C(=O)NCc2ccc(NC(=O)N(C)C)cc2)c2c1CCN(c1ccc(C(=O)N3CCCOCC3)cn1)C2 [Example 195, 5-(5-(1,4-oxazepane-4-carbonyl)pyridin-2-yl)-N-(4-(3,3-dimethylureido)benzyl)-1-isopropyl-4,5,6,7-tetrahydro-1H-pyrazolo[4,3-c]pyridine-3-carboxamide]

The next lines start with the compound.

Structure (SMILES)	EC50
COCCC1(N)CCN(C(=O)Nc2ccc(CNC(=O)c3nn(C(C)C)c4c3CN(c3ccc(C(=O)N(C)C)cc3)C[C@@H]4C)cc2)C1 (single isomer, unassigned) [Example 671, (S)-N-(4-((R*)-3-amino-3-(2-methoxyethyl)pyrrolidine-1-carboxamido)benzyl)-5-(4-(dimethylcarbamoyl)phenyl)-1-isopropyl-7-methyl-4,5,6,7-tetrahydro-1H-pyrazolo[4,3-c]pyridine-3-carboxamide]	3 nM
COCC1(N)CCN(C(=O)Nc2ccc(CNC(=O)c3nn(C(C)C)c4c3CN(c3ccc(C(=O)N(C)C)cc3)C[C@@H]4C)cc2)C1 (single isomer, unassigned) [Example 672, (S)-N-(4-((R*)-3-amino-3-(methoxymethyl)pyrrolidine-1-carboxamido)benzyl)-5-(4-(dimethylcarbamoyl)phenyl)-1-isopropyl-7-methyl-4,5,6,7-tetrahydro-1H-pyrazolo[4,3-c]pyridine-3-carboxamide]	1 nM
COCC1(N)CCN(C(=O)Nc2ccc(CNC(=O)c3nn(C(C)C)c4c3CN(c3ccc(C(=O)N(C)C)cc3)C[C@@H]4C)cc2)C1 (single isomer, unassigned) [Example 673, (S)-N-(4-((R*)-3-amino-3-(methoxymethyl)pyrrolidine-1-carboxamido)benzyl)-5-(4-(dimethylcarbamoyl)phenyl)-1-isopropyl-7-methyl-4,5,6,7-tetrahydro-1H-pyrazolo[4,3-c]pyridine-3-carboxamide]	2 nM
CC(C)n1nc(C(=O)NCc2ccc(NC(=O)N3CCN(C)CC3)cc2)c2c1C(C(F)(F)F)CN(c1ccc(C(=O)N(C)C)cn1)C2 (single isomer, unassigned) [Example 692, rel-(R or S)-5-(5-(dimethylcarbamoyl)pyridin-2-yl)-1-isopropyl-N-(4-(4-methylpiperazine-1-carboxamido)benzyl)-7-(trifluoromethyl)-4,5,6,7-tetrahydro-1H-pyrazolo[4,3-c]pyridine-3-carboxamide]	0.3 nM
CCn1nc(C(=O)NCc2ccc(NC(=O)N3CCN(C)CC3)cc2)c2c1C(C(F)(F)F)CN(c1ccc(C(=O)N(C)C)cn1)C2 (single isomer, unassigned) [Example 694, rel-(R or S)-5-(5-(dimethylcarbamoyl)pyridin-2-yl)-1-ethyl-N-(4-(4-methylpiperazine-1-carboxamido)benzyl)-7-(trifluoromethyl)-4,5,6,7-tetrahydro-1H-pyrazolo[4,3-c]pyridine-3-carboxamide]	0.3 nM
CC(C)n1nc(C(=O)NCc2ccc(NC(=O)N3CCN(C)CC3)cc2)c2c1C(C(F)(F)F)CN(c1ccc(C(=O)N(C)C)cc1)C2 (single isomer, unassigned) [Example 705, rel-(R or S)-5-(4-(dimethylcarbamoyl)phenyl)-1-isopropyl-N-(4-(4-methylpiperazine-1-carboxamido)benzyl)-7-(trifluoromethyl)-4,5,6,7-tetrahydro-1H-pyrazolo[4,3-c]pyridine-3-carboxamide]	0.2 nM
CC(=O)N[C@H]1CCN(C(=O)c2ccc(N3CCc4c(c(C(=O)NCc5ccc(NC(=O)N(C)C)cc5)nn4C(C)C)C3)nc2)C1 [Example 193, (S)-5-(5-(3-Acetamidopyrrolidine-1-carbonyl)pyridin-2-yl)-N-(4-(3,3-dimethylureido)benzyl)-1-isopropyl-4,5,6,7-tetrahydro-1H-pyrazolo[4,3-c]pyridine-3-carboxamide]	372 nM

Same assay, conditions: STAT6 NanoLuc luciferase reporter, IL-13 stimulated HaCaT keratinocyte cells; read-out: Reporter EC50

EC50	Structure (SMILES)
5 nM	CC(C)n1nc(C(=O)NCc2ccc(NC(=O)N3CCC(CC#N)CC3)cc2)c2c1CCN(c1ccc(C(=O)N(C)C)cn1)C2 [Example 149, N-(4-(4-(cyanomethyl)piperidine-1-carboxamido)benzyl)-5-(5-(dimethylcarbamoyl)pyridin-2-yl)-1-isopropyl-4,5,6,7-tetrahydro-1H-pyrazolo[4,3-c]pyridine-3-carboxamide]
9 nM	CC(C)n1nc(C(=O)NCc2ccc(NC(=O)N3CCCC(N(C)C)C3)cc2)c2c1CCN(c1ccc(C(=O)N(C)C)cn1)C2 (stereo not shown) [Example 151, N-(4-(3-(dimethylamino)piperidine-1-carboxamido)benzyl)-5-(5-(dimethylcarbamoyl)pyridin-2-yl)-1-isopropyl-4,5,6,7-tetrahydro-1H-pyrazolo[4,3-c]pyridine-3-carboxamide]
